Usually IC50 stands for the concentration that gives 50% inhibition. A low value points to inhibition by little substance.

We go through 32 compounds from patent publication US8158792B2, “Spiropiperidines for use as tryptase inhibitors” (Janssen Pharmaceutica N.V., priority 2007, dated 2012).

This assay deals with human lung tryptase. The assay can be described thus: β-Tryptase In-Vitro Enzyme Assay. Particulars: human lung tryptase 1 nM, substrate H-D-HHT-Ala-Arg-pNa 500 μM, pH 7.4, room temperature. It is filed as biochemical. Here is the method: The β-tryptase assay was conducted with human lung tryptase (Cortex Biochem #CP3033) in an aqueous buffer (10 mM Tris, 10 mM Hepes, 150 mM NaCl, 0.1% PEG 8000, pH 7.4) using the chromogenic substrate H-D-HHT-Ala-Arg-pNa. […] Percent inhibition was calculated by comparing the initial reaction velocity of samples without inhibitor to those with inhibitor. The initial reaction velocities were analyzed using Microsoft Excel.

`NCc1ccc2c(c1)C1(CCN(C(=O)c3ccc(Br)s3)CC1)CO2` [Cpd 198, 1-(5-bromo-thien-2-yl)carbonyl-5′-aminomethyl-spiro[piperidine-4,3′-(2H)-benzo[b]furan]]: it took 73 nM to reach half-maximal inhibition (IC50).
In the case of `NCc1ccc2c(c1)C1(CCN(C(=O)/C=C/c3ccccc3Br)CC1)CO2` [Cpd 199, (E)-1-(2-bromo-phenylethenyl)carbonyl-5′-aminomethyl-spiro[piperidine-4,3′-(2H)-benzo[b]furan]] it was 180 nM.
In the case of `NCc1ccc2c(c1)C1(CCN(C(=O)c3cc4cc(C(F)(F)F)ccc4s3)CC1)CO2` [Cpd 200, 1-(5-trifluoromethyl-benzo[b]thien-2-yl)carbonyl-5′-aminomethyl-spiro[piperidine-4,3′-(2H)-benzo[b]furan]] it was 4100 nM.
Regarding `COc1ccc(-c2c(C(=O)N3CCC4(CC3)COc3ccc(CN)cc34)sc(SC)c2C#N)cc1` [Cpd 201, 1-[3-(4-methoxy-phenyl)-4-cyano-5-methylthio-thien-2-yl]carbonyl-5′-aminomethyl-spiro[piperidine-4,3′-(2H)-benzo[b]furan]], half-maximal inhibition (IC50) was put at 45 nM.
In the case of `CSc1sc(C(=O)N2CCC3(CC2)COc2ccc(CN)cc23)c(-c2ccc(Cl)cc2)c1C#N` [Cpd 202, 1-[3-(4-chloro-phenyl)-4-cyano-5-methylthio-thien-2-yl]carbonyl-5′-aminomethyl-spiro[piperidine-4,3′-(2H)-benzo[b]furan]], it took 51 nM to reach half-maximal inhibition (IC50).
In the case of `NCc1ccc2c(c1)C1(CCN(C(=O)c3scc4c3CCCC4)CC1)CO2` [Cpd 203, 1-(5,6,7-trihydro-4H-benzo[c]thien-1-yl)carbonyl-5′-aminomethyl-spiro[piperidine-4,3′-(2H)-benzo[b]furan]] it was 280 nM; in that of `NCc1ccc2c(c1)C1(CCN(C(=O)c3cc4sccc4s3)CC1)CO2` [Cpd 204, 1-thieno[3,2-b]thien-2-ylcarbonyl-5′-aminomethyl-spiro[piperidine-4,3′-(2H)-benzo[b]furan]], 89 nM; in that of `CC(=O)N/C(=C\c1ccccc1)C(=O)N1CCC2(CC1)COc1ccc(CN)cc12` [Cpd 205, (Z)-1-(1-methylcarbonylamino-2-phenylethenyl)carbonyl-5′-aminomethyl-spiro[piperidine-4,3′-(2H)-benzo[b]furan]], 740 nM.
Compound `Cc1nc(-c2ccc(C(=O)N3CCC4(CC3)COc3ccc(CN)cc34)s2)cs1` [Cpd 206, 1-[5-(2-methyl-thiazol-4-yl)-thien-2-yl]carbonyl-5′-aminomethyl-spiro[piperidine-4,3′-(2H)-benzo[b]furan]] gave a concentration for half-maximal inhibition (IC50) of 260 nM.
In the case of `Cc1ccc2c(Cl)c(C(=O)N3CCC4(CC3)COc3ccc(CN)cc34)sc2c1` [Cpd 207, 1-(3-chloro-6-methyl-benzo[b]thien-2-yl)carbonyl-5′-aminomethyl-spiro[piperidine-4,3′-(2H)-benzo[b]furan]] it was 1500 nM; in that of `Cc1ccccc1Oc1cccc(CC(=O)N2CCC3(CC2)COc2ccc(CN)cc23)c1` [Cpd 208, 1-[3-(2-methyl-phenoxy)-benzyl]carbonyl-5′-aminomethyl-spiro[piperidine-4,3′-(2H)-benzo[b]furan]], 12 nM.
In the case of `COc1ccc2c(Cl)c(C(=O)N3CCC4(CC3)COc3ccc(CN)cc34)sc2c1` [Cpd 209, 1-(3-chloro-6-methoxy-benzo[b]thien-2-yl)carbonyl-5′-aminomethyl-spiro[piperidine-4,3′-(2H)-benzo[b]furan]] it was 330 nM; in that of `NCc1ccc2c(c1)C1(CCN(C(=O)Cc3cccc(Oc4ccccc4F)c3)CC1)CO2` [Cpd 210, 1-[3-(2-fluoro-phenoxy)-benzyl]carbonyl-5′-aminomethyl-spiro[piperidine-4,3′-(2H)-benzo[b]furan]], 26 nM.
The same measure for `CCCSc1sc(C(=O)N2CCC3(CC2)COc2ccc(CN)cc23)c2c1C(=O)CCC2` [Cpd 211, 1-(3-propylthio-4-oxo-5,6,7-trihydro-4H-benzo[c]thien-1-yl)carbonyl-5′-aminomethyl-spiro[piperidine-4,3′-(2H)-benzo[b]furan]]: 17 nM.
As to `CCCc1ccc(OCc2ccc(C(=O)N3CCC4(CC3)COc3ccc(CN)cc34)o2)c(OC)c1` [Cpd 212, 1-[5-(2-methoxy-4-propyl-phenoxymethyl)-furan-2-yl]carbonyl-5′-aminomethyl-spiro[piperidine-4,3′-(2H)-benzo[b]furan]], half-maximal inhibition (IC50) required 370 nM.
Take `NCc1ccc2c(c1)C1(CCN(C(=O)c3ccc(COc4ccccc4Br)o3)CC1)CO2` [Cpd 213, 1-[5-(2-bromo-phenoxymethyl)-furan-2-yl]carbonyl-5′-aminomethyl-spiro[piperidine-4,3′-(2H)-benzo[b]furan]]: inhibition was half-maximal at 240 nM (IC50).
The same measure for `NCc1ccc2c(c1)C1(CCN(C(=O)c3sc(SCc4ccccc4)c4c3CCCC4=O)CC1)CO2` [Cpd 214, 1-(3-benzylthio-4-oxo-5,6,7-trihydro-4H-benzo[c]thien-1-yl)carbonyl-5′-aminomethyl-spiro[piperidine-4,3′-(2H)-benzo[b]furan]]: 6.5 nM; for `NCc1ccc2c(c1)C1(CCN(C(=O)C=C3OC(=O)c4ccccc43)CC1)CO2` [Cpd 215, 1-[1-oxo-2-(3-oxo-3H-isobenzofuran-1-ylidene)-ethyl]-5′-aminomethyl-spiro[piperidine-4,3′-(2H)-benzo[b]furan]]: 760 nM.
The same measure for `NCc1ccc2c(c1)C1(CCN(C(=O)c3ccc(CN4CCOCC4)o3)CC1)CO2` [Cpd 216, 1-(5-morpholin-4-ylmethyl-furan-2-yl)carbonyl-5′-aminomethyl-spiro[piperidine-4,3′-(2H)-benzo[b]furan]]: 1700 nM; for `NCc1ccc2c(c1)C1(CCN(C(=O)c3snnc3-c3ccccc3)CC1)CO2` [Cpd 217, 1-(4-phenyl-[1,2,3]thiadiazol-5-yl)carbonyl-5′-aminomethyl-spiro[piperidine-4,3′-(2H)-benzo[b]furan]]: 650 nM; for `CSc1sc(C(=O)N2CCC3(CC2)COc2ccc(CN)cc23)c2c1CCCC2` [Cpd 218, 1-(3-methylthio-5,6,7-trihydro-4H-benzo[c]thien-1-yl)carbonyl-5′-aminomethyl-spiro[piperidine-4,3′-(2H)-benzo[b]furan]]: 8 nM.
The same measure for `CSc1sc(C(=O)N2CCC3(CC2)COc2ccc(CN)cc23)c2c1C=CCC2` [Cpd 219, 1-(3-methylthio-7-hydro-6H-benzo[c]thien-1-yl)carbonyl-5′-aminomethyl-spiro[piperidine-4,3′-(2H)-benzo[b]furan]]: 2.9 nM; for `Cc1occc1C(=O)NCc1ccc(C(=O)N2CCC3(CC2)COc2ccc(CN)cc23)o1` [Cpd 220, 1-[5-(2-methyl-furan-3-yl-carbonylaminomethyl)-furan-2-yl]carbonyl-5′-aminomethyl-spiro[piperidine-4,3′-(2H)-benzo[b]furan]]: 690 nM.
In turn, `Cc1nn(-c2ccc(C(=O)N3CCC4(CC3)COc3ccc(CN)cc34)o2)c(C)c1Cl` [Cpd 221, 1-[5-(3,5-dimethyl-4-chloro-pyrazol-1-yl)-furan-2-yl]carbonyl-5′-aminomethyl-spiro[piperidine-4,3′-(2H)-benzo[b]furan]] returned an IC50 of 550 nM.
As to `Cc1c(C(=O)N2CCC3(CC2)COc2ccc(CN)cc23)oc2c1C(=O)CC(c1ccccc1)C2` (centres unmarked) [Cpd 222, 1-(3-methyl-4-oxo-6-phenyl-5,6,7-trihydro-4H-benzo[b]furan-2-yl)carbonyl-5′-aminomethyl-spiro[piperidine-4,3′-(2H)-benzo[b]furan]], the IC50 was determined as 260 nM.
`CCSc1sc(C(=O)N2CCC3(CC2)COc2ccc(CN)cc23)c2c1C(=O)CC(C)(C)C2` [Cpd 223, 1-(3-ethylthio-4-oxo-6,6-dimethyl-6,7-dihydro-5H-benzo[c]thien-1-yl)carbonyl-5′-aminomethyl-spiro[piperidine-4,3′-(2H)-benzo[b]furan]] gave an IC50 of 21 nM.
The compound `C=CCc1ccc(OCc2ccc(C(=O)N3CCC4(CC3)COc3ccc(CN)cc34)o2)c(OC)c1` [Cpd 224, 1-[5-(2-methoxy-4-allyl-phenoxymethyl)-furan-2-yl]carbonyl-5′-aminomethyl-spiro[piperidine-4,3′-(2H)-benzo[b]furan]] came in with an IC50 of 280 nM.
The same measure for `CC(C)Sc1sc(C(=O)N2CCC3(CC2)COc2ccc(CN)cc23)c2c1C(=O)CC(C)(C)C2` [Cpd 225, 1-(3-isopropylthio-4-oxo-6,6-dimethyl-6,7-dihydro-5H-benzo[c]thien-1-yl)carbonyl-5′-aminomethyl-spiro[piperidine-4,3′-(2H)-benzo[b]furan]]: 47 nM; for `Cc1c(C#N)sc2sc(C(=O)N3CCC4(CC3)COc3ccc(CN)cc34)c(C)c12` [Cpd 226, 1-(3,4-dimethyl-5-cyano-thieno[2,3-b]thien-2-yl)carbonyl-5′-aminomethyl-spiro[piperidine-4,3′-(2H)-benzo[b]furan]]: 3200 nM.
Regarding `COc1cccc(OCc2ccc(C(=O)N3CCC4(CC3)COc3ccc(CN)cc34)o2)c1` [Cpd 227, 1-[5-(3-methoxy-phenoxymethyl)-furan-2-yl]carbonyl-5′-aminomethyl-spiro[piperidine-4,3′-(2H)-benzo[b]furan]], the concentration for half-maximal inhibition (IC50) came out at 44 nM.
In the case of `Cc1c(C(=O)N2CCC3(CC2)COc2ccc(CN)cc23)oc2cc(-c3ccccc3)ccc12` [Cpd 228, 1-(3-methyl-6-phenyl-benzo[b]furan-2-yl)carbonyl-5′-aminomethyl-spiro[piperidine-4,3′-(2H)-benzo[b]furan]] it was 37 nM; in that of `CCCCSc1sc(C(=O)N2CCC3(CC2)COc2ccc(CN)cc23)c2c1C(=O)CCC2` [Cpd 229, 1-(3-butylthio-4-oxo-5,6,7-trihydro-4H-benzo[c]thien-1-yl)carbonyl-5′-aminomethyl-spiro[piperidine-4,3′-(2H)-benzo[b]furan]], 5.3 nM.
